According to patent publication US20250320190A1, “Novel Inhibitors of Leucine Carboxyl Methyltransferase-1 (LCMT-1) and Methods of Use Thereof” (Temple University-Of The Commonwealth System of Higher …, priority 2024, published 2025):
Values after ≈ are worked out from the molar mass of the structure shown. Read-outs that look alike come from different tables or passages of the source.

Columns and labels:
[1] = tested on: SCC-25 cells; experiment: DDR analysis (activated γ-H2AX flow cytometry); assay type: cell-based, human; conditions: LCMT-li alone vs control cells, 24 hours
Description: (§1) Cells were treated with LCMT-li, radiotherapy or both as described for Annexin V assays. After 24 hours, cells were lifted with 0.25% trypsin, 2.21 mM EDTA, stained with Ghost Dye™ 710 and fixed with formaldehyde as described. Cells were washed with PBS with 1% BSA, and permeabilized with PBS with 0.1% Triton X-100 on ice for 10 minutes. Cells were pelleted and washed twice with PBS with 0.02% Triton X-100. Cells were resuspended in PBS with 1% BSA and 0.3% Tween-20, and stained with FITC-anti-activated-γ-H2AX (Biolegend, catalog #613404). Cells were pelleted and washed with PBS with 1% BSA and 0.1% sodium azide. DDR analyses were performed twice with 12 replicates, 104 cells/replicate.

[2] = tested on: UM-SCC-14a cells; experiment: DDR analysis (activated γ-H2AX flow cytometry); assay type: cell-based, human; conditions: LCMT-li alone vs control cells, 24 hours
Description: as §1

[3] = tested on: UM-SCC-12 cells; experiment: DDR analysis (activated γ-H2AX flow cytometry); assay type: cell-based, human; conditions: LCMT-li alone vs control cells, 24 hours
Description: as §1

[4] = tested on: UM-SCC-69 cells; experiment: DDR analysis (activated γ-H2AX flow cytometry); assay type: cell-based, human
Description: as §1

[5] = tested on: UM-SCC-49 cells; experiment: DDR analysis (activated γ-H2AX flow cytometry); assay type: cell-based, human; conditions: LCMT-li alone vs control cells, 24 hours
Description: as §1

[6] = Plasma protein binding; assay type: in vitro ADME; conditions: read-out: Plasma Protein Binding (bound fraction) (converted)
From the text: (§2) There is no cause for concern at this stage since there are multiple strategies and reagents for enhancing aqueous solubility for animal in vivo studies (Savjani, K. T., A. K. Gajjar and J. K. Savjani, 2012, ISRN Pharm 2012: 195727.). […] While target tissue exposure is dependent on free, unbound fractions in the plasma, plasma protein binding can protect compounds from hepatic metabolism. Thus, in vivo metabolism and excretion are often determined by a balance between these two properties. In vivo half-life is a complicated property impacted upon by multiple factors and is difficult to predict. […] While these numbers are somewhat low for a drug candidate, they are acceptable for proof of concept tool molecules which can be given multiple times per day and at higher doses to saturate metabolism.

[7] = Kinetic solubility; assay type: physicochemical; conditions: 2% dimethylsulfoxide/PBS, aqueous buffer, kinetic from dmso stock; read-out: Max. Kinetic Solubility
From the text: as §2

[8] = tested on: Rosi cells; experiment: Cytotoxicity assay (calcein-AM); assay type: cell-based, human; conditions: Homo sapiens; Rosi; 48 hours; read-out: Log [μM] EC50 (converted)
Description: HS-5, HEK-293, MCF7, MDA-MB-231 and Rosi cells were seeded in 96-well optical bottom tissue culture plates (Corning, New York) at a density of 2.5×10^3 cells/well. […] Control cells were given fresh media. After 48 hours the media were aspirated and plates were washed with warmed Dulbecco's phosphate-buffered saline (DPBS) with calcium and magnesium (Sigma-Aldrich, catalog #D1283). Cells were stained with 3 μM calcein-AM (AAT Bioquest, Pleasanton, California, catalog #22002) in DPBS for 30 minutes in the dark at 37° C. Plates were immediately read with a Biotek fluorescent plate reader (excitation 485 nm, emission 520 nm). The cytotoxicity assays were performed at least three times, each time with six replicates per condition.

[9] = Liver microsomal stability; assay type: in vitro ADME
From the text: as §2

[10] = tested on: SCC-25 cells; experiment: Western blots (pMLKL, ACSL4) with and without irradiation; assay type: cell-based, human; conditions: alone and in combination with irradiation
Description: (§3) To better understand cellular outcomes associated with combining LCMT-li with radiotherapy (Adjemian, S. et al., 2020, Cell Death Dis 11(11): 1003), SCC-15, SCC-25, UM-SCC-12, UM-SCC-14a and UM-SCC-49 cells were treated with LCMT-li, radiotherapy or both as described for Annexin V assays. UM-SCC-69 cells were not used for immunoblots because insufficient numbers of cells survived irradiation to obtain sufficient lysates. After 24 hours, cells were lysed in radioimmunoprecipitation assay buffer containing protease inhibitors (Boster Bio, Pleasanton, California, catalog #AR1182-1) and phosphatase inhibitors (Santa Cruz Biotechnology catalog #sc-45044 and #sc-45045). Protein concentrations were measured with a bicinchoninic acid assay (G-Biosciences, Saint Louis, Missouri). Fifty micrograms of each lysate were used for bis-tris polyacrylamide gel electrophoresis. Resolved lysates were transferred to nitrocellulose membranes. Membranes were blocked with TBS with 5% bovine serum albumin before incubation with primary antibodies.
(§4) The anti-phospho-mixed lineage kinase domain like pseudokinase (pMLKL) antibody was obtained from R&D Systems (Minneapolis, Minnesota, catalog #MAB9187-100, 1:1,000 dilution). Antibodies obtained from Proteintech (Rosemont, Illinois) included anti-MLKL (catalog #66675-1-Ig, 1:5,000 dilution) and anti-β-actin (catalog #66009-1-Ig, 1:50,000 dilution). The anti-long-chain-fatty-acid-Coenzyme A ligase 4 (ACSL4) antibody was obtained from Santa Cruz Biotechnology (Dallas, Texas, catalog #sc-365230, 1:1,000 dilution). Appropriate IR-dye secondary antibodies obtained from Jackson ImmunoResearch Laboratories (West Grove, Pennsylvania) were used (Alexa Fluor® 790-conjugated anti-mouse (catalog #115-655-146, 1:50,000 dilution), Alexa Fluor® 680-conjugated anti-mouse (catalog #115-625-146, 1:50,000 dilution), and Alexa Fluor® 680-conjugated anti-rabbit (catalog #115-625-144, 1:50,000 dilution). Band densities were normalized to β-actin, the endogenous control. Twelve replicates were used for statistical analyses.

[11] = tested on: SCC-15 cells; experiment: as above; assay type: cell-based, human; conditions: alone or with irradiation
Description: as §3, §4

[12] = tested on: UM-SCC-12 cells; experiment: as above; assay type: cell-based, human; conditions: LCMT-li alone
Description: as §3, §4

## COC(=O)c1c(NC(=O)c2ccccc2C)sc(C(=O)Nc2cccc(C)c2)c1C [Compound 2, methyl 4-methyl-2-[(2-methylbenzoyl)amino]-5-[[(3-methylphenyl)amino]carbonyl]-3-thiophenecarboxylate]
[1]
  activated γ-H2AX expression: increased activated γ-H2AX expression
[2]
  activated γ-H2AX expression: decreased activated γ-H2AX expression
[3]
  activated γ-H2AX expression: decreased activated γ-H2AX expression
[4]; LCMT-li alone vs control cells, 24 hours
  activated γ-H2AX expression: decreased activated γ-H2AX expression
[4]; in the presence of irradiation
  DDR (activated γ-H2AX expression): inhibited DDR as evidenced by persistent activated γ-H2AX expression
[5]
  activated γ-H2AX expression: decreased activated γ-H2AX expression
[6]
  fraction unbound: 0.029
[7]
  solubility kinetic: 18.5 µM (≈ 7.82 µg/mL)
[8]
  EC50: 3.16 µM
[9]; human liver microsomes, read-out: Liver Microsomal Stability (t1/2) Human
  half-life: 31.1 min
[9]; mouse liver microsomes, read-out: Liver Microsomal Stability (t1/2) Mouse
  half-life: 17.3 min
[10]
  necroptosis (pMLKL expression): increased necroptosis
[11]
  necroptosis (pMLKL) and ferroptosis (ACSL4): did not induce necroptosis or ferroptosis
[12]
  necroptosis (pMLKL) and ferroptosis (ACSL4): increased necroptosis and ferroptosis
